Square brackets hold non-standard residues; d marks the D form. Ends that are not written are not given here. Tyr(3-NO2) = N[C@@H](Cc1ccc(O)c([N+](=O)[O-])c1)C(=O)O

These results are taken from US20170320939A1, “COLL2-1 PEPTIDE AND ITS NITRATED FORM AS THERAPEUTIC TARGETS FOR OSTEOARTHRITIS TREATMENT” (Université de Liège, priority 2014, published 2017).

The target in one experiment is T1, TLR-4 (Homo sapiens, UniProt O00206).
T1 construct: endogenous in cells; host or cells: osteoarthritic synoviocytes (synovial fibroblast cells)
Kind of experiment: Inhibition of TLR-4 receptor: IL-8 expression by osteoarthritic synoviocytes. Conditions: 1 hour pre-treatment with CLI-095 (500 nM, 1 and 2.5 μM), then 24 hours Coll2-1 at 4.5 nmol. Format: cell-based. From the text:
(§1) 1.4 RNA extraction and Real Time Reverse Transcriptase-Polymerase Chain Reaction (RT PCR). Total RNA were extracted using the RNeasy Mini Kit (Qiagen, Netherlands) and were reverse transcribed with SuperScript III Reverse Transcriptase (Invitrogen, Belgium) according to the manufacturer's instructions. The cDNAs were quantified by real-time quantitative PCR using the Rotor Gene instrument (Qiagen, Venlo, Netherlands) and the SYBR Premix Ex Taq kit (Takara, Verviers, Belgium). The level of gene expression was determined by interpolation with a standard curve. To standardize mRNA levels, HPRT, a house keeping gene, was amplified as an internal control. The oligonucleotide primers sequences were as follow: HPRT forward, 5′-[…]-3′ (SEQ ID NO: 2); HPRT reverse, 5′-TGCCTGACCAAGGAAAGC-3′ (SEQ ID NO: 3); TSP-1 forward, 5′-CAGACCGCATTGGAGATAC-3′ (SEQ ID NO: 4); TSP-1 reverse, 5′-[…]-3′ (SEQ ID NO: 5); VEGF forward, 5′-TGCCTTGCTGCTCTAC-3′ (SEQ ID NO: 6); VEGF reverse, 5′-CACACAGGATGGCTTGAA-3′ (SEQ ID NO: 7); IL-6 forward, 5′-AAACAAATTCGGTACATCCTCG-3′ (SEQ ID NO: 8); IL-6 reverse, 5′-CCA GGC AAG TCT CCT CAT-3′ (SEQ ID NO: 9); IL-8 forward, 5′-GGAACCATCTCACTGTGTGTAA-3′ (SEQ ID NO: 10); IL-8 reverse, 5′-TGGAAAGGTTTGGAGTATGTCT-3′ (SEQ ID NO: 11).
Inhibition of TLR-4 receptor. […]

A further experiment relates to NF-κB. Nature of the experiment: NF-κB activation, Western blotting of phospho-p65 and phospho-IκBα. Type of experiment: cell-based. Conditions: oxidative stress inhibitors: apocynin 0.2 mM and diphenyleneiodonium 6.35 10^−2 mM. The protocol:
Western blotting. Cells were collected at 4° C. and lysed on ice in 50 μl of buffer (25 mM Hepes, 150 mM NaCl, 0.5% Triton X-100, 10% glycerol, and 1 mM dithiothreitol) containing protease and phosphatase inhibitors. After incubation at 4° C. for 30 minutes, lysates were then centrifugated at 14,000 g for 30 minutes at 4° C. to remove insoluble debris. Protein concentrations were determined using BCA assay. Total protein extracts (10 μg) were fractioned by electrophoresis on a polyacrylamide gel (10%) and transferred onto a PVDF membrane. Membrane were blocked for 1 h in TBS-Tween containing 2% bovine serum albumin (phosphor-NF-κB p65 and phospho-IκBα). Membranes were then incubated overnight at 4° C. with primary antibodies. Anti-rabbit phospho-NF-κB p65 (1:1000 dilution), anti-rabbit phospho-IκBα (1:1000 dilution) were used. Horse-radish peroxidase (HRP)-linked anti-rabbit IgG antibody (1:2000 dilution) was used as secondary antibody.
A general note: Immunoblotting shows a protein as a band on a membrane.

The subject of experiment [1] is OA synovial fibroblast cells. Nature of the experiment: Intracellular GSH assay in OA synovial fibroblast cells. Type of experiment: cell-based, human. The note with it: Coll2-1NO2 at 4 and 40 pmol, 24 hours. On the procedure:
(§2) 1.1 Patients. Synovial tissue samples were obtained from 10 patients (8 women, 2 man; mean age 70 +/−6 years) with osteoarthritis (OA) of the knee at the time of total knee joint replacement surgery. All the subjects provided their informed consent.
(§3) 1.2 Isolation and culture of synovial cells. Synovium biopsies were digested is with collagenase from Clostridium histolyticum, Type IA (1 mg/ml) (Sigma-Aldrich, Saint-Louis, USA) and 0.25% trypsin (Sigma Aldrich, Saint Louis, USA) with 0.68 mM EDTA in Tris buffer 0.1M, pH 7.4 in complete medium (CM) (DMEM (Dulbecco's Modified Eagle's Medium) Low Glucose supplemented with 10 mM HEPES, 100 U/ml penicillin, 100 μg/ml streptomycin, 2 mM glutamine and 10% fetal calf serum (Lonza, Verviers, Belgium)) for 1 hour at 37° C. The cells suspensions were passed through a 70-μm filter to remove any undigested tissue. The filtered cells suspensions were then collected by centrifugation at 800 g and were cultured in culture flasks. After 24 hours, medium was changed to eliminate non adherent cells. Synovial fibroblasts cells (SFC) were used after three passages. […]
1.6 GSH assay. Levels of intracellular GSH were assessed by monoclorobimane staining. […] The fluorescence intensities were measured at […] using excitation and emission wavelengths of 380 and 485 nm, respectively. The intracellular GSH level was expressed as arbitrary units of fluorescence intensity.

For the next experiment, the system named is IL-6. Nature of the experiment: IL-6 mRNA expression by Real Time PCR in OA synovial fibroblast cells. Conditions: increasing concentrations of peptide, 24 hours. Format: cell-based, human. On the procedure:
(§4) 1.3 Treatment of synovial fibroblast cells. Cells were seeded into a six-well plate at the density of 2×10^5 cells/well in 2 ml of CM. When the cells reached confluence, the CM was replaced with 1% serum medium for 24 h to keep the cells quiescent. Cells were incubated for 24 hours with or without peptides Coll2-1 (^108HRGYPGLDG^116; 0.45 and 4.5 nmol) or Coll2-1NO2 (^108HRGYPGLDG-NO2^116; 4 and 40 pmol) at a range of concentrations found in the blood of osteoarthritic patients.
(§5) 1.4 RNA extraction and Real Time Reverse Transcriptase-Polymerase Chain Reaction (RT PCR). Total RNA were extracted using the RNeasy Mini Kit (Qiagen, Netherlands) and were reverse transcribed with SuperScript III Reverse Transcriptase (Invitrogen, Belgium) according to the manufacturer's instructions. The cDNAs were quantified by real-time quantitative PCR using the Rotor Gene instrument (Qiagen, Venlo, Netherlands) and the SYBR Premix Ex Taq kit (Takara, Verviers, Belgium). The level of gene expression was determined by interpolation with a standard curve. To standardize mRNA levels, HPRT, a house keeping gene, was amplified as an internal control. […]
On the technique in general: In qPCR the cycle at which signal appears reflects the starting amount.

The subject of experiment [2] is OA synovial fibroblast cells. Kind of experiment: Intracellular H2O2 production in OA synovial fibroblast cells. Format: cell-based, human. Conditions: 24 hours. On the procedure: as §2
1.2 Isolation and culture of synovial cells. Synovium biopsies were digested is with collagenase from Clostridium histolyticum, Type IA (1 mg/ml) (Sigma-Aldrich, Saint-Louis, USA) and 0.25% trypsin (Sigma Aldrich, Saint Louis, USA) with 0.68 mM EDTA in Tris buffer 0.1M, pH 7.4 in complete medium (CM) (DMEM (Dulbecco's Modified Eagle's Medium) Low Glucose supplemented with 10 mM HEPES, 100 U/ml penicillin, 100 μg/ml streptomycin, 2 mM glutamine and 10% fetal calf serum (Lonza, Verviers, Belgium)) for 1 hour at 37° C. The cells suspensions were passed through a 70-μm filter to remove any undigested tissue. The filtered cells suspensions were then collected by centrifugation at 800 g and were cultured in culture flasks. After 24 hours, medium was changed to eliminate non adherent cells. Synovial fibroblasts cells (SFC) were used after three passages.
as §4
1.5 Intracellular H2O2 and O2^∘^− productions. Levels of intracellular superoxide anion (O2^∘^−) and hydrogen peroxide (H2O2) were assessed spectrofluorimetrically by oxidation of specific probes: dihydroethidium (Molecular Probes, Leiden, The Netherlands) and H2DCFH-DA (Molecular Probes, Leiden, The Netherlands) respectively. Synovial cells seeded on 96-well plates (8×10^3 cells per well) were washed once with phosphate-buffered saline and then incubated with 50 μL of phosphate-buffered saline containing either 250 μM dihydroethidium or 200 μM H2DCFH-DA. The fluorescence intensity was measured every hour for 6 hours. The levels of O2^∘^− or H2O2 are expressed in arbitrary unit/living cell. The numbers of adherent cells were measured by crystal violet assay.

The next experiment relates to IL-8. Kind of experiment: IL-8 mRNA expression by Real Time PCR in OA synovial fibroblast cells. Type of experiment: cell-based, human. Conditions: increasing concentrations: Coll2-1 (0.45 and 4.5 nmol) or Coll2-1NO2 (4 and 40 pmol), 24 hours. On the procedure:
as §4, §1

In experiment [3] the test system is OA synovial fibroblast cells. Kind of experiment: NO production in OA synovial fibroblast cells. The note with it: Coll2-1 (0.45 and 4.5 nmol) or Coll2-1NO2 (4 and 40 pmol), 24 hours. Type of experiment: cell-based, human. On the procedure: as §2, §3
1.7 NO production. Nitric oxide production was evaluated using a DAF2-DA fluorescent probe (Molecular Probes, Leiden, The Netherlands). […] The fluorescence intensity was measured every hour for 6 hours. […] The numbers of adherent cells were measured by cristal violet assay.

The test system of a further experiment is TSP1. Kind of experiment: TSP1 mRNA expression by Real Time PCR in OA synovial fibroblast cells. Type of experiment: cell-based, human. Conditions: 24 hours. On the procedure:
as §4, §1

For the next experiment, the system named is VEGF. Kind of experiment: VEGF mRNA expression by Real Time PCR in OA synovial fibroblast cells. Type of experiment: cell-based, human. Conditions: increasing concentrations: Coll2-1 (0.45 and 4.5 nmol) or Coll2-1NO2 (4 and 40 pmol), 24 hours. The protocol:
as §4, §5

T1 sequence (O00206 24-839): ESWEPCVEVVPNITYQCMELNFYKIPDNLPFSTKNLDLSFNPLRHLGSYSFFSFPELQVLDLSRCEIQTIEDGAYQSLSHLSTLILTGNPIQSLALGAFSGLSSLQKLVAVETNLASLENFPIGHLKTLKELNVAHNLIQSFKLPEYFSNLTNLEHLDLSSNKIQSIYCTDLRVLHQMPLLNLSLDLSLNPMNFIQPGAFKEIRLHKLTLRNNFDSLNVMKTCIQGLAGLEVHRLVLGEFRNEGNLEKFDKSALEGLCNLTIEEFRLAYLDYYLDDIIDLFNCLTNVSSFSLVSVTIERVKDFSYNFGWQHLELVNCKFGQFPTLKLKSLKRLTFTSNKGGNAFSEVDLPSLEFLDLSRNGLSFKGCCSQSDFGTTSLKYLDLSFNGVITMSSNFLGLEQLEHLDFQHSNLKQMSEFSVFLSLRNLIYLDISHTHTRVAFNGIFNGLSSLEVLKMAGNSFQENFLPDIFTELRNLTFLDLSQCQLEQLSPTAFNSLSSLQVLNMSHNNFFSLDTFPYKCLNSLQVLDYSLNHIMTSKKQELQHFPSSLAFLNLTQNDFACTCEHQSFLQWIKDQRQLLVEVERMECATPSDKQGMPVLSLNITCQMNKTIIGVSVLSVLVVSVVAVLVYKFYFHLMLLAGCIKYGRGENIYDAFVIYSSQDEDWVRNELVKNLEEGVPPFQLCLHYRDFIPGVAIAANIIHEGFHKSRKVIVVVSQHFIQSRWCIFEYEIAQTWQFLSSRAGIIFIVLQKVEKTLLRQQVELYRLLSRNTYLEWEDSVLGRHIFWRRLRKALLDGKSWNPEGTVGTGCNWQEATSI

Consider `CCOC(=O)C1=CCCC[C@H]1S(=O)(=O)Nc1ccc(F)cc1Cl` [CLI-095], for which the “IL-8 expression by osteoarthritic synoviocytes in the presence of Coll2-1” value on TLR-4 is “decrease”.

For `COc1cc(C(C)=O)ccc1O` [apocynin], in the experiment with NF-κB, the “Coll2-1 induced IκBα degradation” value is recorded as “decreased”; the “Coll2-1 induced phosphorylation and translocation of p65” value is “inhibited”.

For `c1ccc2c(c1)[I+]c1ccccc1-2` [diphenyleneiodonium], in the experiment on NF-κB, the “Coll2-1 induced IκBα degradation” value is recorded as “decreased”; the “Coll2-1 induced phosphorylation and translocation of p65” value is listed as “inhibited”.

Regarding “HRGY(NO2)PGLDG (HRG[Tyr(3-NO2)]PGLDG) [Coll2-1NO2, nitrated form of the Coll2-1 peptide]”, the “intracellular level of GSH” value in [1] is recorded as “significant decrease”. Also, the IL-6 expression result in the experiment with IL-6 is on record as “increased”. Further, the “intracellular production of H2O2” value in experiment [2] (Coll2-1NO2 at 4 pmol) and in [2] (Coll2-1NO2 at 40 pmol) was “significantly increased” each time. In addition, in the experiment on IL-8, the IL-8 expression entry was “increased”. Besides, in [3], the “production of NO (nitric oxide)” value was “decreased significantly”. In the experiment with TSP1 (Coll2-1NO2 at 40 pmol), the “decrease of TSP1 expression, significance” value was “significant”. Also, the TSP1 expression result with TSP1 (increasing concentrations: Coll2-1 (0.45 and 4.5 nmol) or Coll2-1NO2 (4 and 40 pmol)) was “decreased”. In the experiment on VEGF, the VEGF expression result is “tended to increase”.
